From patent US10669276B2, “Fused pyrimidine derivatives” (Hoffmann-La Roche Inc., priority 2016, dated 2020)
Blank lines part the entries; values can stand above or below the molecule they belong to.

Biological target: γ-secretase (Homo sapiens (Human), UniProt P49768)
Assay: Cellular γ-secretase assay (Aβ42 secretion, AlphaLisa)
Format: cell-based
Details: inhibition of Aβ42 secretion; human neuroglioma H4 cells overexpressing human APP695 Swedish double mutation; 24 hr compound incubation
Procedure: Human neuroglioma H4 cells overexpressing human APP695 with the Swedish double mutation (K595N/M596L) were plated at 30,000 cells/well/100 μl in 96-well plates in IMDM media containing 10% FCS, 0.2 mg/l Hygromycin B and incubated at 37° C., 5% CO2.
3-4 hr post plating, compounds are a diluted in media and 50 μl is added as […] concentrate to achieve the final concentration. Compound incubation is performed for 24 hr. Final doses typically range from 4 μM down to 0.0013 μM in half-log steps resulting in an eight point dose response curve. Appropriate controls using vehicle only and reference compound were applied to this assay. The final concentration of Me2SO was 0.4%.
After incubation at 37° C., 5% CO2, the supernatant was subjected to quantification of secreted Aβ42 by the means of an AlphaLisa assay kit (Human Amyloid beta 1-42 Kit: Cat # AL203C, Perkin Elmer). 20 μl of the cell culture supernatant was transferred to an assay plate. Then 10 μl of a mixture of the AlphaLisa coupled capture antibody and the biotinylated detection antibody was added and incubated for 3 hours at room temperature while softly shaking the assay plate. After a further addition of 20 μl of the Donor beads the assay plate was incubated for 30 min at room temperature and constant shaking without exposure to direct light. The assay plate was then read on a Paradigm AlphaLisa Reader using the build-in program with excitation at 680 nm and emission at […]. The measured signals were then used to calculate IC50 values for inhibition of Aβ42 secretion by nonlinear regression fit analysis using XLfit 5.3 software (IDBS).

Structure (SMILES): CNc1nc(Nc2ccc(-c3cnc(C)o3)c(F)c2)nc2c1C(C)(C)CN2c1ccc(F)cc1 [Example 16, N2-(3-Fluoro-4-(2-methyloxazol-5-yl)phenyl)-7-(4-fluorophenyl)-N4,5,5-trimethyl-6,7-dihydro-5H-pyrrolo[2,3-d]pyrimidine-2,4-diamine]
EC50: 30 nM

Structure (SMILES): CNc1nc(Nc2ccc(-n3ncnc3C)c(F)c2)nc2c1C(C)(C)CN2c1ccc(F)cc1 [Example 5, N2-(3-Fluoro-4-(5-methyl-1H-1,2,4-triazol-1-yl)phenyl)-7-(4-fluorophenyl)-N4,5,5-trimethyl-6,7-dihydro-5H-pyrrolo[2,3-d]pyrimidine-2,4-diamine]
EC50: 22 nM

Structure (SMILES): CNc1nc(Nc2cnc(-n3cnc(Cl)c3)c(OC)c2)nc2c1C(C)(C)CN2c1ccc(F)cc1F [Example 23, N2-(6-(4-Chloro-1H-imidazol-1-yl)-5-methoxypyridin-3-yl)-7-(2,4-difluorophenyl)-N4,5,5-trimethyl-6,7-dihydro-5H-pyrrolo[2,3-d]pyrimidine-2,4-diamine]
EC50: 8 nM

Structure (SMILES): CNc1nc(Nc2ccc(-c3nnc(C)o3)cc2)nc2c1C(C)(C)CN2c1ccc(F)cc1 [Example 47, 7-(4-Fluorophenyl)-N4,5,5-trimethyl-N2-(4-(5-methyl-1,3,4-oxadiazol-2-yl)phenyl)-6,7-dihydro-5H-pyrrolo[2,3-d]pyrimidine-2,4-diamine]
EC50: 55 nM

Structure (SMILES): CNc1nc(Nc2cnc(-n3cnc(C)c3)c(F)c2)nc2c1C(C)(C)CN2c1ccc(F)cc1F [Example 26, 7-(2,4-Difluorophenyl)-N2-(5-fluoro-6-(4-methyl-1H-imidazol-1-yl)pyridin-3-yl)-N4,5,5-trimethyl-6,7-dihydro-5H-pyrrolo[2,3-d]pyrimidine-2,4-diamine]
EC50: 6 nM

Structure (SMILES): CNc1nc(Nc2cnc(-n3cnc(C)c3)c(OC)c2)nc2c1C(C)(C)CN2C12CC(C(F)(F)F)(C1)C2 [Example 22, N2-(5-Methoxy-6-(4-methyl-1H-imidazol-1-yl)pyridin-3-yl)-N4,5,5-trimethyl-7-(3-(trifluoromethyl)bicyclo[1.1.1]pentan-1-yl)-6,7-dihydro-5H-pyrrolo[2,3-d]pyrimidine-2,4-diamine]
EC50: 30 nM

Structure (SMILES): CNc1nc(Nc2ccc(-n3cnc(C)n3)c(OC)c2)nc2c1C(C)(C)CN2C12CC(C(F)(F)F)(C1)C2 [Example 21, N2-(3-Methoxy-4-(3-methyl-1H-1,2,4-triazol-1-yl)phenyl)-N4,5,5-trimethyl-7-(3-(trifluoromethyl)bicyclo[1.1.1]pentan-1-yl)-6,7-dihydro-5H-pyrrolo[2,3-d]pyrimidine-2,4-diamine]
EC50: 72 nM

The next lines start with the values.

EC50: 8 nM
Structure (SMILES): CNc1nc(Nc2ccc(-n3cnc(C)n3)c(OC)c2)nc2c1C(C)(C)CN2c1ccc(F)cc1F [Example 19, 7-(2,4-Difluorophenyl)-N2-(3-methoxy-4-(3-methyl-1H-1,2,4-triazol-1-yl)phenyl)-N4,5,5-trimethyl-6,7-dihydro-5H-pyrrolo[2,3-d]pyrimidine-2,4-diamine]

EC50: 6 nM
Structure (SMILES): CNc1nc(Nc2cnc(-n3cnc(C)c3)c(OC)c2)nc2c1C(C)CN2c1ccc(F)cc1 (centres unmarked) [Example 40, 7-(4-Fluorophenyl)-N2-(5-methoxy-6-(4-methyl-1H-imidazol-1-yl)pyridin-3-yl)-N4,5-dimethyl-6,7-dihydro-5H-pyrrolo[2,3-d]pyrimidine-2,4-diamine]

EC50: 9 nM
Structure (SMILES): CNc1nc(Nc2ccc(-n3cnc(C)n3)c(OC)c2)nc2c1C(C)(C)CN2c1cccc(F)c1F [Example 41, 7-(2,3-Difluorophenyl)-N2-(3-methoxy-4-(3-methyl-1H-1,2,4-triazol-1-yl)phenyl)-N4,5,5-trimethyl-6,7-dihydro-5H-pyrrolo[2,3-d]pyrimidine-2,4-diamine]

EC50: 10 nM
Structure (SMILES): CNc1nc(Nc2ccc(-n3cnc(C)n3)c(OC)c2)nc2c1CCN2c1ccc(F)cc1 [Example 32, 7-(4-Fluorophenyl)-N2-(3-methoxy-4-(3-methyl-1H-1,2,4-triazol-1-yl)phenyl)-N4-methyl-6,7-dihydro-5H-pyrrolo[2,3-d]pyrimidine-2,4-diamine]
